Experimental data published in the supplement of paper PMC10307832.

Assays:
Assay in all cases: relative viability (nuclei count vs DMSO), 5 days (fraction); higher = more cells survive
[1] = test system: RERF-LC-KJ
Summary of the method: (§1)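 Dosing by pin tool came one day after lung cancer cell lines were seeded in 1536-well plates, using either one drug or a fixed anchor-drug dose plus five library-drug doses (not always all listed) in √10 steps. After 5 days, nuclei were counted on 4× images. Relative viability is treated-well nuclei count divided by vehicle-well nuclei count, and values are medians of duplicate plates.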

[2] = test system: NCI-H1755
Summary of the method: as §1

[3] = test system: LC-2-ad
Summary of the method: as §1

[4] = test system: A-427
Summary of the method: as §1

[5] = test system: NCI-H23
Summary of the method: as §1

[6] = test system: NCI-H2170
Summary of the method: as §1

[7] = test system: UMC-11
Summary of the method: as §1

[8] = test system: NCI-H2347
Summary of the method: as §1

[9] = test system: LCLC-103H
Summary of the method: as §1

[10] = test system: NCI-H1734
Summary of the method: as §1

[11] = test system: NCI-H1915
Summary of the method: as §1

[12] = test system: NCI-H1355
Summary of the method: as §1

[13] = test system: NCI-H650
Summary of the method: as §1

[14] = test system: NCI-H1792
Summary of the method: as §1

[15] = test system: HCC-366
Summary of the method: as §1

[16] = test system: SK-MES-1
Summary of the method: as §1

[17] = test system: NCI-H1993
Summary of the method: as §1

[18] = test system: SW 1573
Summary of the method: as §1

[19] = test system: SK-LU-1
Summary of the method: as §1

[20] = test system: NCI-H2228
Summary of the method: as §1

[21] = test system: HCC-827
Summary of the method: as §1

[22] = test system: NCI-H1975
Summary of the method: as §1

## CCNC(=O)c1noc(-c2cc(C(C)C)c(O)cc2O)c1-c1ccc(CN2CCOCC2)cc1 [Luminespib] + C[C@@H](Oc1cc(-c2cnn(C3CCNCC3)c2)cnc1N)c1c(Cl)ccc(F)c1Cl [Crizotinib] (partner 1 µM)
[1]; first compound 0.002 µM
  relative viability: 0.817
[1]; first compound 0.006325 µM
  relative viability: 0.791
[1]; first compound 0.02 µM
  relative viability: 0.877
[1]; first compound 0.06325 µM
  relative viability: 0.948
[1]; first compound 0.2 µM
  relative viability: 0.223
[2]; first compound 0.002 µM
  relative viability: 0.878
[2]; first compound 0.006325 µM
  relative viability: 0.882
[2]; first compound 0.02 µM
  relative viability: 0.938
[2]; first compound 0.06325 µM
  relative viability: 0.756
[2]; first compound 0.2 µM
  relative viability: 0.315
[3]; first compound 0.002 µM
  relative viability: 0.48
[3]; first compound 0.006325 µM
  relative viability: 0.482
[3]; first compound 0.06325 µM
  relative viability: 0.289
[3]; first compound 0.2 µM
  relative viability: 0.262
[4]; first compound 0.002 µM
  relative viability: 1.09
[4]; first compound 0.006325 µM
  relative viability: 0.796
[4]; first compound 0.02 µM
  relative viability: 0.955
[4]; first compound 0.06325 µM
  relative viability: 0.873
[4]; first compound 0.2 µM
  relative viability: 0.835
[5]; first compound 0.002 µM
  relative viability: 0.56
[5]; first compound 0.006325 µM
  relative viability: 0.538
[5]; first compound 0.02 µM
  relative viability: 0.445
[5]; first compound 0.06325 µM
  relative viability: 0.119
[5]; first compound 0.2 µM
  relative viability: 0.123
[6]; first compound 0.002 µM
  relative viability: 1.19
[6]; first compound 0.006325 µM
  relative viability: 1.23
[6]; first compound 0.02 µM
  relative viability: 0.655
[6]; first compound 0.06325 µM
  relative viability: 1.08
[6]; first compound 0.2 µM
  relative viability: 0.355
[7]; first compound 0.002 µM
  relative viability: 0.606
[7]; first compound 0.006325 µM
  relative viability: 0.584
[7]; first compound 0.02 µM
  relative viability: 0.682
[7]; first compound 0.06325 µM
  relative viability: 0.156
[7]; first compound 0.2 µM
  relative viability: 0.107
[8]; first compound 0.002 µM
  relative viability: 0.701
[8]; first compound 0.02 µM
  relative viability: 0.625
[8]; first compound 0.06325 µM
  relative viability: 0.315
[8]; first compound 0.2 µM
  relative viability: 0.311
[9]; first compound 0.002 µM
  relative viability: 1.02
[9]; first compound 0.006325 µM
  relative viability: 1.04
[9]; first compound 0.02 µM
  relative viability: 0.908
[9]; first compound 0.06325 µM
  relative viability: 1.02
[9]; first compound 0.2 µM
  relative viability: 1.15
[10]; first compound 0.002 µM
  relative viability: 0.77
[10]; first compound 0.006325 µM
  relative viability: 0.612
[10]; first compound 0.02 µM
  relative viability: 0.566
[10]; first compound 0.06325 µM
  relative viability: 0.135
[10]; first compound 0.2 µM
  relative viability: 0.0997
[11]; first compound 0.002 µM
  relative viability: 0.952
[11]; first compound 0.006325 µM
  relative viability: 0.897
[11]; first compound 0.02 µM
  relative viability: 0.958
[11]; first compound 0.06325 µM
  relative viability: 0.904
[11]; first compound 0.2 µM
  relative viability: 0.851
[12]; first compound 0.002 µM
  relative viability: 1.1
[12]; first compound 0.006325 µM
  relative viability: 1.05
[12]; first compound 0.02 µM
  relative viability: 0.62
[12]; first compound 0.06325 µM
  relative viability: 1.08
[12]; first compound 0.2 µM
  relative viability: 1.08
[13]; first compound 0.002 µM
  relative viability: 0.887
[13]; first compound 0.006325 µM
  relative viability: 0.745
[13]; first compound 0.02 µM
  relative viability: 0.487
[13]; first compound 0.06325 µM
  relative viability: 0.0913
[13]; first compound 0.2 µM
  relative viability: 0.102
[14]; first compound 0.002 µM
  relative viability: 0.981
[14]; first compound 0.006325 µM
  relative viability: 0.906
[14]; first compound 0.02 µM
  relative viability: 0.955
[14]; first compound 0.06325 µM
  relative viability: 0.435
[14]; first compound 0.2 µM
  relative viability: 0.119
[15]; first compound 0.002 µM
  relative viability: 0.695
[15]; first compound 0.006325 µM
  relative viability: 0.659
[15]; first compound 0.02 µM
  relative viability: 0.549
[15]; first compound 0.06325 µM
  relative viability: 0.0174
[15]; first compound 0.2 µM
  relative viability: 0.0135
[16]; first compound 0.002 µM
  relative viability: 0.984
[16]; first compound 0.006325 µM
  relative viability: 1.03
[16]; first compound 0.02 µM
  relative viability: 1.08
[16]; first compound 0.06325 µM
  relative viability: 0.758
[16]; first compound 0.2 µM
  relative viability: 0.147
[17]; first compound 0.002 µM
  relative viability: 0.929
[17]; first compound 0.006325 µM
  relative viability: 0.953
[17]; first compound 0.02 µM
  relative viability: 0.884
[17]; first compound 0.06325 µM
  relative viability: 0.743
[17]; first compound 0.2 µM
  relative viability: 0.47
[18]; first compound 0.002 µM
  relative viability: 0.833
[18]; first compound 0.006325 µM
  relative viability: 0.853
[18]; first compound 0.02 µM
  relative viability: 0.757
[18]; first compound 0.06325 µM
  relative viability: 0.191
[18]; first compound 0.2 µM
  relative viability: 0.0946
[19]; first compound 0.002 µM
  relative viability: 0.992
[19]; first compound 0.006325 µM
  relative viability: 0.708
[19]; first compound 0.02 µM
  relative viability: 0.574
[19]; first compound 0.06325 µM
  relative viability: 0.176
[19]; first compound 0.2 µM
  relative viability: 0.155
[20]; first compound 0.002 µM
  relative viability: 0.47
[20]; first compound 0.006325 µM
  relative viability: 0.514
[20]; first compound 0.02 µM
  relative viability: 0.264
[20]; first compound 0.06325 µM
  relative viability: 0.161
[20]; first compound 0.2 µM
  relative viability: 0.148
[21]; first compound 0.002 µM
  relative viability: 0.944
[21]; first compound 0.006325 µM
  relative viability: 0.899
[21]; first compound 0.02 µM
  relative viability: 0.887
[21]; first compound 0.06325 µM
  relative viability: 0.952
[21]; first compound 0.2 µM
  relative viability: 0.879
[22]; first compound 0.002 µM
  relative viability: 0.975
[22]; first compound 0.006325 µM
  relative viability: 0.99
[22]; first compound 0.02 µM
  relative viability: 0.763
[22]; first compound 0.06325 µM
  relative viability: 0.147
[22]; first compound 0.2 µM
  relative viability: 0.15
